In PubChem BioAssay AID192 (DTP/NCI, 2004):
Where “and” joins values, the source holds several entries; their conditions need not be identical. Equal entries are not always repeated. Inconclusive results and toxic doses are left out.

System: BDF1 mice, B16 melanoma ip, median survival T/C
Assay: NCI In Vivo Anticancer Drug Screen. Data for tumor model B16 Melanoma (intraperitoneal) in B6D2F1 (BDF1) mice
Details: endpoint: median survival time, higher = longer survival
How it was run: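 Values are ratios of treated (T) to vehicle-control (C) measurements of survival or tumor size in tumor-bearing mice.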

[1] = dose: 0.39 mg/kg/injection, schedule: Q01DX009 (ip), vehicle: saline
[2] = dose: 1.56 mg/kg/injection, schedule: Q01DX009 (ip), vehicle: saline
[3] = dose: 3.12 mg/kg/injection, schedule: Q01DX009 (ip), vehicle: saline
[4] = dose: 100.0 mg/kg/injection, schedule: Q01DX009 (ip), vehicle: Klucel (hydroxypropylcellulose) (HPC)
[5] = dose: 200.0 mg/kg/injection, schedule: Q01DX009 (ip), vehicle: Klucel (hydroxypropylcellulose) (HPC)
[6] = dose: 400.0 mg/kg/injection, schedule: Q01DX009 (ip), vehicle: Klucel (hydroxypropylcellulose) (HPC)
[7] = dose: 50.0 mg/kg/injection, schedule: Q01DX009 (ip), vehicle: saline
[8] = dose: 100.0 mg/kg/injection, schedule: Q01DX009 (ip), vehicle: saline
[9] = dose: 50.0 mg/kg/injection, schedule: Q01DX009 (ip), vehicle: Klucel (hydroxypropylcellulose) (HPC)
[10] = dose: 12.5 mg/kg/injection, schedule: Q01DX009 (ip), vehicle: saline with Tween-80
[11] = dose: 25.0 mg/kg/injection, schedule: Q01DX009 (ip), vehicle: saline with Tween-80
[12] = dose: 50.0 mg/kg/injection, schedule: Q01DX009 (ip), vehicle: saline with Tween-80
[13] = dose: 25.0 mg/kg/injection, schedule: Q01DX009 (ip), vehicle: Klucel (hydroxypropylcellulose) (HPC)

With `COc1cccc2c1C(=O)c1c(O)c3c(c(O)c1C2=O)C[C@@](O)(/C(C)=N\NC(=O)CO)C[C@@H]3OC1CC(N)C(O)C(C)O1` (stereo partly drawn) the T/C [1] was 117 % of control, the T/C [2] was 162 % of control and the T/C (dose: 2.5 mg/kg/injection, schedule: Q01DX001 (ip), vehicle: water) was 97 % of control and 100 % of control. The T/C [3] was 173 % of control and 218 % of control, the T/C (dose: 6.25 mg/kg/injection, schedule: Q01DX009 (ip), vehicle: saline) was 206 % of control and 375 % of control and the T/C (dose: 10.0 mg/kg/injection, schedule: Q01DX001 (ip), vehicle: water) was 108 % of control and 250 % of control. For the same compound, the T/C (dose: 20.0 mg/kg/injection, schedule: Q01DX001 (ip), vehicle: water) was 87 % of control and 102 % of control and the T/C (dose: 40.0 mg/kg/injection, schedule: Q01DX001 (ip), vehicle: water) was 95 % of control.
In the case of `CCC1(O)CC2c3ccccc3CCN2CC1CC(C)C` (stereo not drawn), the T/C (dose: 0.19 mg/kg/injection, schedule: Q01DX009 (ip), vehicle: saline) is reported as 104 % of control, the T/C [1] is reported as 111 % of control and the T/C (dose: 0.78 mg/kg/injection, schedule: Q01DX009 (ip), vehicle: saline) is reported as 109 % of control. The T/C [2] was 112 % of control and the T/C [3] was 112 % of control.
With `Nc1ncnc2sc3c(c12)CCCC3` the T/C [4] was 100 % of control, the T/C [5] was 101 % of control and the T/C [6] was 110 % of control.
`COC(=O)/C(C#N)=N/O` was tested, and the T/C (dose: 9.37 mg/kg/injection, schedule: Q04DX003 (ip), vehicle: saline with Tween-80) was 95 % of control, the T/C (dose: 18.75 mg/kg/injection, schedule: Q04DX003 (ip), vehicle: saline with Tween-80) was 110 % of control and the T/C (dose: 37.5 mg/kg/injection, schedule: Q04DX003 (ip), vehicle: saline with Tween-80) was 100 % of control. For the same compound, the T/C [7] was 107 % of control, the T/C (dose: 75.0 mg/kg/injection, schedule: Q04DX003 (ip), vehicle: saline) was 91 % of control and the T/C [8] was 92 % of control.
With `C=C(C)C12OC3(/C=C/C=C/CCCCC)OC1C1C4OC4(CO)C(O)C4(O)C(=O)C(C)=CC4C1(O3)C(C)C2OC(=O)c1ccccc1` (stereo not drawn) the T/C (dose: 0.5 micrograms/kg/injection, schedule: Q01DX009 (ip), vehicle: saline) was 104 % of control, the T/C (dose: 1.0 micrograms/kg/injection, schedule: Q01DX009 (ip), vehicle: saline) was 104 % of control and the T/C (dose: 1.9 micrograms/kg/injection, schedule: Q01DX009 (ip), vehicle: saline) was 105 % of control. The T/C (dose: 3.8 micrograms/kg/injection, schedule: Q01DX009 (ip), vehicle: saline) was 104 % of control, the T/C (dose: 7.5 micrograms/kg/injection, schedule: Q01DX009 (ip), vehicle: saline) was 97 % of control and the T/C (dose: 15.0 micrograms/kg/injection, schedule: Q01DX009 (ip), vehicle: saline) was 104 % of control. The T/C (dose: 30.0 micrograms/kg/injection, schedule: Q01DX009 (ip), vehicle: saline) was 98 % of control.
`C=CCOCC(O)CN(C)c1ccccc1` (stereo not drawn) was tested, and the T/C (dose: 25.0 mg/kg/injection, schedule: Q04DX003 (ip), vehicle: Klucel (hydroxypropylcellulose) (HPC)) was 92 % of control, the T/C (dose: 50.0 mg/kg/injection, schedule: Q04DX003 (ip), vehicle: Klucel (hydroxypropylcellulose) (HPC)) was 95 % of control and the T/C (dose: 100.0 mg/kg/injection, schedule: Q04DX003 (ip), vehicle: Klucel (hydroxypropylcellulose) (HPC)) was 89 % of control and 90 % of control. The T/C (dose: 400.0 mg/kg/injection, schedule: Q04DX003 (ip), vehicle: Klucel (hydroxypropylcellulose) (HPC)) was 88 % of control.
`Nc1cc(N)cc(Cc2ccccc2)c1` was tested, and the T/C [9] was 101 % of control, the T/C [4] was 93 % of control and the T/C [5] was 100 % of control.
With `COc1cc2c[n+](C)c3c4cc5c(cc4ccc3c2cc1OC)OCO5` the T/C (dose: 5.0 mg/kg/injection, schedule: Q01DX009 (ip), vehicle: water) was 122 % of control, the T/C [10] was 113 % of control and the T/C [11] was 115 % of control. The T/C (dose: 40.0 mg/kg/injection, schedule: Q01DX009 (ip), vehicle: water) was 120 % of control and the T/C [12] was 97 % of control.
In the case of `O=C(Nc1ccccc1C(=O)O)c1cc([N+](=O)[O-])cc([N+](=O)[O-])c1`, the T/C [10] is reported as 98 % of control, the T/C [11] is reported as 101 % of control and the T/C [12] is reported as 111 % of control. The T/C (dose: 100.0 mg/kg/injection, schedule: Q01DX009 (ip), vehicle: saline with Tween-80) was 95 % of control and the T/C (dose: 200.0 mg/kg/injection, schedule: Q01DX009 (ip), vehicle: saline with Tween-80) was 87 % of control.
For `Cc1ccc(NC(=O)c2ccc([N+](=O)[O-])cc2)cc1Cl`, the T/C [13] was 109 % of control, the T/C [9] was 99 % of control and the T/C [4] was 99 % of control.
In the case of `CC1CCC[N-]C1.CC1CCC[N-]C1.CC1CCC[N-]C1.CC1CCC[N-]C1.[Cl][Rh][Cl]` (stereo not drawn), the T/C (dose: 3.0 mg/kg/injection, schedule: Q01DX009 (ip), vehicle: Klucel (hydroxypropylcellulose) (HPC)) is reported as 111 % of control, the T/C (dose: 6.0 mg/kg/injection, schedule: Q01DX009 (ip), vehicle: Klucel (hydroxypropylcellulose) (HPC)) is reported as 110 % of control and the T/C (dose: 12.0 mg/kg/injection, schedule: Q01DX009 (ip), vehicle: Klucel (hydroxypropylcellulose) (HPC)) is reported as 115 % of control.
For `NC(=O)c1ncc[nH]c1=O`, the T/C [7] was 118 % of control and the T/C [8] was 124 % of control.
`COc1cccc(NC(=O)CCC(=O)O)c1` was tested, and the T/C (dose: 1.56 mg/kg/injection, schedule: Q01DX009 (ip), vehicle: Klucel (hydroxypropylcellulose) (HPC)) was 89 % of control, the T/C (dose: 3.12 mg/kg/injection, schedule: Q01DX009 (ip), vehicle: Klucel (hydroxypropylcellulose) (HPC)) was 102 % of control and the T/C (dose: 6.25 mg/kg/injection, schedule: Q01DX009 (ip), vehicle: Klucel (hydroxypropylcellulose) (HPC)) was 92 % of control. The T/C (dose: 12.5 mg/kg/injection, schedule: Q01DX009 (ip), vehicle: Klucel (hydroxypropylcellulose) (HPC)) was 94 % of control.
For `COc1cc(C(=O)OC(C)CN2CCOCC2)cc(OC)c1OC` (stereo not drawn), the T/C (dose: 3.12 mg/kg/injection, schedule: Q04DX003 (ip), vehicle: saline) was 106 % of control, the T/C (dose: 6.25 mg/kg/injection, schedule: Q04DX003 (ip), vehicle: saline) was 111 % of control and the T/C (dose: 12.5 mg/kg/injection, schedule: Q01DX009 (ip), vehicle: saline) was 100 % of control. The T/C (dose: 12.5 mg/kg/injection, schedule: Q04DX003 (ip), vehicle: saline) was 106 % of control, the T/C (dose: 25.0 mg/kg/injection, schedule: Q01DX009 (ip), vehicle: saline) was 100 % of control and the T/C (dose: 25.0 mg/kg/injection, schedule: Q04DX003 (ip), vehicle: saline) was 105 % of control. The T/C [7] was 100 % of control, the T/C (dose: 50.0 mg/kg/injection, schedule: Q04DX003 (ip), vehicle: saline) was 102 % of control and the T/C [8] was 108 % of control. For the same compound, the T/C (dose: 100.0 mg/kg/injection, schedule: Q04DX003 (ip), vehicle: saline) was 98 % of control, the T/C (dose: 200.0 mg/kg/injection, schedule: Q01DX009 (ip), vehicle: saline) was 102 % of control and the T/C (dose: 200.0 mg/kg/injection, schedule: Q04DX003 (ip), vehicle: saline) was 118 % of control. The T/C (dose: 400.0 mg/kg/injection, schedule: Q04DX003 (ip), vehicle: saline) was 97 % of control.
With `CCCN(CCC)C(=O)c1ccncc1` the T/C [4] was 93 % of control and the T/C [6] was 95 % of control.
With `N=C(N)CCNC(=O)C1CCC(N)=N1` (stereo not drawn) the T/C (dose: 0.75 mg/kg/injection, schedule: Q01DX009 (ip), vehicle: saline) was 96 % of control, the T/C (dose: 1.5 mg/kg/injection, schedule: Q01DX009 (ip), vehicle: saline) was 88 % of control and the T/C (dose: 3.0 mg/kg/injection, schedule: Q01DX009 (ip), vehicle: saline) was 93 % of control. For the same compound, the T/C (dose: 6.0 mg/kg/injection, schedule: Q01DX009 (ip), vehicle: saline) was 99 % of control.
With `CCOC(=O)N1Cc2cc3cc(Cl)ccc3nc2C1` the T/C (dose: 8.0 mg/kg/injection, schedule: Q01DX009 (ip), vehicle: saline with Tween-80) was 103 % of control, the T/C (dose: 16.0 mg/kg/injection, schedule: Q01DX009 (ip), vehicle: saline with Tween-80) was 95 % of control and the T/C (dose: 32.0 mg/kg/injection, schedule: Q01DX009 (ip), vehicle: saline with Tween-80) was 93 % of control. For the same compound, the T/C (dose: 64.0 mg/kg/injection, schedule: Q01DX009 (ip), vehicle: saline with Tween-80) was 112 % of control.
For `CC(CC#N)OC(=O)c1cccc([N+](=O)[O-])c1` (stereo not drawn), the T/C [4] was 88 % of control, the T/C [5] was 99 % of control and the T/C [6] was 91 % of control.
In the case of `NC(=O)CC(N)C(=O)O.[Cl-].[Cl-].[Cl-].[Cl-].[Pt+2]` (stereo not drawn), the T/C [2] is reported as 114 % of control and the T/C (dose: 3.13 mg/kg/injection, schedule: Q01DX009 (ip), vehicle: saline) is reported as 122 % of control.
With `O=c1oc(-c2ccccc2I)nc2ccccc12` the T/C [4] was 99 % of control and the T/C [5] was 94 % of control.
`O=C1CC2(C(=O)N1CN1CCOCC1)c1ccccc1-c1ccccc12` was tested, and the T/C [13] was 103 % of control, the T/C [9] was 98 % of control and the T/C [4] was 98 % of control. The T/C [5] was 107 % of control and the T/C [6] was 115 % of control.
